Source: patent US6599932B1, “Alpha, beta-unsaturated sulfones for treating proliferative disorders” (Temple University-Of The Commonwealth System of Higher …, priority 2000, dated 2003)

Experiments:
Format in all cases: cell-based
Set-up in all cases: dose or concentration left out as unconfirmed
[1] = system: breast tumor cell line BT-20; assay: Viability assay, Trypan blue exclusion, breast tumor cell line BT-20; details: for percent cell death (% Death), BT20: 96 hours; for cytotoxicity: Homo sapiens, BT-20, 96 hours, read-out: percent cell death (% Death), BT20
Protocol: (§1) The effect of the sulfones on normal fibroblasts and on tumor cells of prostate, colon, lung and breast origin was examined utilizing the following cell lines: prostate tumor cell line DU-145; colorectal carcinoma cell line DLD-1; non-small cell lung carcinoma cell line H157; and breast tumor cell line BT-20. BT-20 is an estrogen-unresponsive cell line. NIH/3T3 and HFL are normal murine and human fibroblasts, respectively. BT-20, DLD-1 and H157 were grown in Dulbecco's modified Eagle's medium (DMEM) containing 10% fetal bovine serum supplemented with penicillin and streptomycin. DU145 was cultured in RPMI with 10% fetal bovine serum containing penicillin and streptomycin. NIH3T3 and HFL cells were grown in DMEM containing 10% calf serum supplemented with penicillin and streptomycin. All cell cultures were maintained at 37° C. in a humidified atmosphere of 5% CO2.
(§2) Cells were treated with test compound […] concentration and cell viability was determined after 96 hours by the Trypan blue exclusion method. Activity for each compound is reported as a range of cell induced death (% Death) with the lowest activity in the range of 5-10%.

[2] = system: colorectal carcinoma cell line DLD-1; assay: Viability assay, Trypan blue exclusion, colorectal carcinoma cell line DLD-1; details: for percent cell death (% Death), DLD-1: 96 hours; for cytotoxicity: Homo sapiens, DLD-1, 96 hours, read-out: percent cell death (% Death), DLD-1
Protocol: as §1, §2

[3] = system: non-small cell lung carcinoma cell line H157; assay: Viability assay, Trypan blue exclusion, non-small cell lung carcinoma cell line H157; details: for percent cell death (% Death), H157: 96 hours; for cytotoxicity: Homo sapiens, NCI-H157, 96 hours, read-out: percent cell death (% Death), H157
Protocol: as §1, §2

[4] = system: prostate tumor cell line DU-145; assay: Viability assay, Trypan blue exclusion, prostate tumor cell line DU-145; details: for percent cell death (% Death), DU145: 96 hours; for cytotoxicity: Homo sapiens, DU-145, 96 hours, read-out: percent cell death (% Death), DU145
Protocol: as §1, §2

COc1ccc(CS(=O)(=O)/C=C/C2=CS(=O)(=O)C=C2)cc1 [Example 36, (E)-3-Thiophene-1,1-dioxoethenyl-4-methoxybenzylsulfone]
percent cell death (% Death), BT20 [1]: + ((+)=5-10%) | percent cell death (% Death), DLD-1 [2]: + ((+)=5-10%) | percent cell death (% Death), H157 [3]: + ((+)=5-10%) | percent cell death (% Death), DU145 [4]: + ((+)=5-10%)

O=S1(=O)C=CC(/C=C/S(=O)(=O)Cc2ccc(Cl)cc2Cl)=C1 [Example 37, (E)-3-Thiophene-1,1-dioxoethenyl-2,4-dichlorobenzylsulfone]
percent cell death (% Death), BT20 [1]: ++ ((++)=10-15%) | percent cell death (% Death), DLD-1 [2]: ++ ((++)=10-15%) | percent cell death (% Death), H157 [3]: ++ ((++)=10-15%) | percent cell death (% Death), DU145 [4]: ++ ((++)=10-15%)

O=S(=O)(/C=C/c1ccoc1)Cc1ccc(F)cc1 [Example 41, (E)-3-Furanethenyl-4-fluorobenzylsulfone]
cytotoxicity [1]: 5 to 10% | cytotoxicity [2]: 5 to 10% | cytotoxicity [3]: 5 to 10% | cytotoxicity [4]: 5 to 10%

O=S(=O)(/C=C/c1ccoc1)Cc1ccc(Cl)cc1 [Example 42, (E)-3-Furanethenyl-4-chlorobenzylsulfone]
cytotoxicity [1]: > 80% | cytotoxicity [2]: > 80% | cytotoxicity [3]: > 80% | cytotoxicity [4]: > 80%

O=S(=O)(/C=C/c1ccoc1)Cc1ccc(Br)cc1 [Example 43, (E)-3-Furanethenyl-4-bromobenzylsulfone]
cytotoxicity [1]: > 80% | cytotoxicity [2]: > 80% | cytotoxicity [3]: > 80% | cytotoxicity [4]: > 80%

O=S(=O)(/C=C/c1ccoc1)Cc1ccc(I)cc1 [Example 44, (E)-3-Furanethenyl-4-iodobenzylsulfone]
cytotoxicity [1]: > 80% | cytotoxicity [2]: > 80% | cytotoxicity [3]: > 80% | cytotoxicity [4]: > 80%

COc1ccc(CS(=O)(=O)/C=C/c2ccoc2)cc1 [Example 46, (E)-3-Furanethenyl-4-methoxybenzylsulfone]
cytotoxicity [1]: > 80% | cytotoxicity [2]: > 80% | cytotoxicity [3]: > 80% | cytotoxicity [4]: > 80%

O=S(=O)(/C=C/c1ccoc1)Cc1ccc(C(F)(F)F)cc1 [Example 47, (E)-3-Furanethenyl-4-trifluoromethylbenzylsulfone]
percent cell death (% Death), BT20 [1]: ++++ ((++++)=50-60%) | percent cell death (% Death), DLD-1 [2]: ++++ ((++++)=50-60%) | percent cell death (% Death), H157 [3]: ++++ ((++++)=50-60%) | percent cell death (% Death), DU145 [4]: ++++ ((++++)=50-60%)

O=S(=O)(/C=C/c1ccoc1)Cc1ccc(Cl)cc1Cl [Example 48, (E)-3-Furanethenyl-2,4-dichlorobenzylsulfone]
cytotoxicity [1]: > 80% | cytotoxicity [2]: > 80% | cytotoxicity [3]: > 80% | cytotoxicity [4]: > 80%

O=S(=O)(/C=C/c1ccoc1)Cc1ccc(Cl)c(Cl)c1 [Example 49, (E)-3-Furanethenyl-3,4-dichlorobenzylsulfone]
cytotoxicity [1]: 50 to 60% | cytotoxicity [2]: 50 to 60% | cytotoxicity [3]: 50 to 60% | cytotoxicity [4]: > 80%

N#Cc1ccc(CS(=O)(=O)/C=C/c2ccoc2)cc1 [Example 50, (E)-3-Furanethenyl-4-cyanobenzylsulfone]
cytotoxicity [1]: 5 to 10% | cytotoxicity [2]: 5 to 10% | cytotoxicity [3]: 5 to 10% | cytotoxicity [4]: 5 to 10%

O=[N+]([O-])c1ccc(CS(=O)(=O)/C=C/c2ccoc2)cc1 [Example 51, (E)-3-Furanethenyl-4-nitrobenzylsulfone]
cytotoxicity [1]: 5 to 10% | cytotoxicity [2]: 5 to 10% | cytotoxicity [3]: 5 to 10% | cytotoxicity [4]: 5 to 10%

O=[N+]([O-])c1cc(/C=C/S(=O)(=O)Cc2ccc(Cl)cc2)cs1 [Example 55, (E)-2-Nitro-4-thiopheneethenyl-4-chlorobenzylsulfone]
cytotoxicity [1]: 5 to 10% | cytotoxicity [2]: 50 to 60% | cytotoxicity [3]: 5 to 10% | cytotoxicity [4]: 10 to 15%

O=[N+]([O-])c1cc(/C=C/S(=O)(=O)Cc2ccc(I)cc2)cs1 [Example 56, (E)-2-Nitro-4-thiopheneethenyl-4-iodobenzylsulfone]
cytotoxicity [1]: 5 to 10% | cytotoxicity [2]: 5 to 10% | cytotoxicity [3]: 5 to 10% | cytotoxicity [4]: 5 to 10%

O=[N+]([O-])c1cc(/C=C/S(=O)(=O)Cc2ccc(Cl)cc2Cl)cs1 [Example 57, (E)-2-Nitro-4-thiopheneethenyl-2,4-dichlorobenzylsulfone]
cytotoxicity [1]: 5 to 10% | cytotoxicity [2]: 10 to 15% | cytotoxicity [3]: 5 to 10% | cytotoxicity [4]: 10 to 15%

COc1ccc(CS(=O)(=O)/C=C/c2csc([N+](=O)[O-])c2)cc1 [Example 58, (E)-2-Nitro-4-thiopheneethenyl-4-methoxybenzylsulfone]
cytotoxicity [1]: 40 to 50% | cytotoxicity [2]: > 80% | cytotoxicity [3]: > 80% | cytotoxicity [4]: 50 to 60%

O=S(=O)(/C=C/c1cccc2ccccc12)Cc1ccc(F)cc1 [Example 62, (E)-1-Naphthaleneethenyl-4-fluorobenzylsulfone]
cytotoxicity [1]: 5 to 10% | cytotoxicity [2]: 5 to 10% | cytotoxicity [3]: 5 to 10% | cytotoxicity [4]: 5 to 10%

O=S(=O)(/C=C/c1ccc2ccccc2c1)Cc1ccc(F)cc1 [Example 63, (E)-2-Naphthaleneethenyl-4-fluorobenzylsulfone]
cytotoxicity [1]: 5 to 10% | cytotoxicity [2]: 5 to 10% | cytotoxicity [3]: 5 to 10% | cytotoxicity [4]: 5 to 10%

O=S(=O)(/C=C/c1cccc2ccccc12)Cc1ccc(Cl)cc1 [Example 64, (E)-1-Naphthaleneethenyl-4-chlorobenzylsulfone]
cytotoxicity [1]: 10 to 15% | cytotoxicity [2]: 10 to 15% | cytotoxicity [3]: 10 to 15% | cytotoxicity [4]: 10 to 15%

O=S(=O)(/C=C/c1ccc2ccccc2c1)Cc1ccc(Cl)cc1 [Example 65, (E)-2-Naphthaleneethenyl-4-chlorobenzylsulfone]
cytotoxicity [1]: 5 to 10% | cytotoxicity [2]: 5 to 10% | cytotoxicity [3]: 5 to 10% | cytotoxicity [4]: 5 to 10%

O=S(=O)(/C=C/c1cccc2ccccc12)Cc1ccc(Br)cc1 [Example 66, (E)-1-Naphthaleneethenyl-4-bromobenzylsulfone]
cytotoxicity [1]: 10 to 15% | cytotoxicity [2]: 10 to 15% | cytotoxicity [3]: 10 to 15% | cytotoxicity [4]: 10 to 15%

O=S(=O)(/C=C/c1ccc2ccccc2c1)Cc1ccc(Br)cc1 [Example 67, (E)-2-Naphthaleneethenyl-4-bromobenzylsulfone]
cytotoxicity [1]: 5 to 10% | cytotoxicity [2]: 5 to 10% | cytotoxicity [3]: 5 to 10% | cytotoxicity [4]: 5 to 10%

O=S(=O)(/C=C/c1ccc(F)cc1)Cc1cccc2ccccc12 [Example 68, (E)-4-Fluorostyryl-1-(naphthylmethyl)sulfone]
cytotoxicity [1]: 5 to 10% | cytotoxicity [2]: 5 to 10% | cytotoxicity [3]: 5 to 10% | cytotoxicity [4]: 5 to 10%

O=S(=O)(/C=C/c1ccc(Cl)cc1)Cc1cccc2ccccc12 [Example 69, (E)-4-Chlorostyryl-1-(naphthylmethyl)sulfone]
cytotoxicity [1]: 5 to 10% | cytotoxicity [2]: 5 to 10% | cytotoxicity [3]: 5 to 10% | cytotoxicity [4]: 5 to 10%

O=S(=O)(/C=C/c1ccc(Br)cc1)Cc1cccc2ccccc12 [Example 70, (E)-4-Bromostyryl-1-(naphthylmethyl)sulfone]
cytotoxicity [1]: 5 to 10% | cytotoxicity [2]: 5 to 10% | cytotoxicity [3]: 5 to 10% | cytotoxicity [4]: 5 to 10%

O=[N+]([O-])c1ccc(/C=C/S(=O)(=O)Cc2cccc3ccccc23)cc1 [Example 73, (E)-4-Nitrostyryl-1-(naphthylmethyl)sulfone]
cytotoxicity [1]: 5 to 10% | cytotoxicity [2]: 5 to 10% | cytotoxicity [3]: 10 to 15% | cytotoxicity [4]: 5 to 10%

O=S(=O)(/C=C/c1c2ccccc2cc2ccccc12)Cc1ccc(F)cc1 [Example 74, (E)-9-Anthraceneethenyl-4-fluorobenzylsulfone]
cytotoxicity [1]: 50 to 60% | cytotoxicity [2]: 50 to 60% | cytotoxicity [3]: > 80% | cytotoxicity [4]: 40 to 50%

O=S(=O)(/C=C/c1c2ccccc2cc2ccccc12)Cc1ccc(Br)cc1 [Example 76, (E)-9-Anthraceneethenyl-4-bromobenzylsulfone]
cytotoxicity [1]: 50 to 60% | cytotoxicity [2]: 40 to 50% | cytotoxicity [3]: 40 to 50% | cytotoxicity [4]: 50 to 60%
